Source: patent US20230069174A1, “NITROGEN-CONTAINING HETEROCYCLIC AUTOTAXIN INHIBITOR, AND COMPOSITION CONTAINING SAME AND USE THEREOF” (SICHUAN HAISCO PHARMACEUTICAL CO., LTD., priority 2019, published 2023)
Where two headings read alike, the source gives them in different places.

Columns and labels:
[1] = Pharmacokinetic experiment in mice (single dose iv and intragastric); format: in vivo; conditions: mouse, plasma, male C57 mice; for bioavailability: po 10 mg/kg vs iv 2.5 mg/kg, read-out: F (bioavailability)
Description: Experimental objective: In this experiment, a single dose of each test compound was administered to C57 mice intravenously and intragastrically, the concentrations of the compounds 35, 37 and 38 in plasma of the mice were measured, and the pharmacokinetic characteristics and bioavailability of each test compound in mice were evaluated.
Experimental animals: Male C57 mice, 20-25 g, 6-8 weeks old, 18 mice/compound. The experimental animals were purchased from CHENGDU DOSSY EXPERIMENTAL ANIMALS CO., LTD.
Experimental method: On the day of the experiment, 18 C57 mice were randomly grouped according to their body weight. The animals were fasted with water available for 12 to 14 hours one day before the administration of a test compound, and were fed 4 hours after the administration.
Before and after the administration, 0.08 ml of blood was taken from the orbit of the […] under isoflurane anesthesia, and placed in an EDTAK2 centrifuge tube. Centrifugation was carried out at 5000 rpm at 4° C. for 10 min and the plasma was collected.
Time points for plasma collection in G1 group: 0, 5, 15, 30 min, 1, 2, 4, 6, 8, and 24 h.
Time points for plasma collection in G2 group: 0, 15, 30 min, 1, 2, 4, 6, 8, and 24 h.
Before analysis and detection, all samples were stored at −80° C.
30 μL of each of plasma sample, standard curve and quality control sample was taken, and 200 μL of acetonitrile solution containing internal standard was added, and the mixture was homogeneously mixed by vortex, and then centrifuged at 12000 rpm for 10 min at 4° C. The supernatant was taken and added into a 96-well plate and analyzed by LC-MS/MS.
The main pharmacokinetic parameters were analyzed by non-compartmental model using WinNonlin 8.0 software.

ATX = molecular target: T1, ATX (Homo sapiens, UniProt Q13822); assay: ATX inhibitory activity: LPA production in pooled human plasma, LC-MS-MS; format: biochemical; conditions: 37° C. 2 h
T1 construct: ATX activity was detected by detecting LPA production in pooled human plasma; from tissue; host or cells: pooled human plasma (heparin-anticoagulated whole blood, centrifuged)
Description: Experimental subject: compounds to be tested.
ATX activity was detected by detecting LPA production in pooled human plasma. Whole blood anticoagulated with heparin was collected and centrifuged, and then plasma was collected. 5-μL gradient dilution of the compound to be tested or DMSO was added to 95-μL plasma, incubated at 37° C. for 2 h, then a stop solution (40 mM disodium hydrogen phosphate buffer, containing a buffer solution (containing 30 mM citric acid, pH=4)) was added. LPA in plasma was detected by LC-MS-MS before and after incubation.
LPA (18:2) and (20:4) LC-MS-MS analytical method
Using a 1.5 mL EP tube, 3.0 μL of each of the working solutions for standard curve and quality control was taken and added to 27.0 μL of water. After homogeneously mixing by vortex, 400 μL of internal standard solution was added. After homogeneously mixing by vortex, the mixture was centrifuged at 4° C. for 10 min. 180 μL of supernatant was taken and added into a 96-well plate, waiting for sample injection.
10 μL of the compound to be tested (10 mg/ml) was precisely pipetted into an EP tube, 990 μL of DMSO solution was added, and the mixture was vortexed to completely dissolve to obtain a solution (100 μg/mL).
Inhibition rate of ATX receptor activity was calculated in the following way: inhibition rate %=((LPAc−LPA0)−(LPAi−LPA0))/(LPAc−LPA0)*100%, wherein LPAc was the LPA content in plasma after DMSO was added and incubated for 2 h, LPA0 was the LPA content in plasma before DMSO was added for incubation, and LPAi was the LPA content in plasma after test compound was added and incubated for 2 h.

[2] = LPA 18:2 readout, read-out: Inhibitory activity against ATX receptor, LPA 18:2 IC50
[3] = LPA 20:4 readout, read-out: Inhibitory activity against ATX receptor, LPA 20:4 IC50

What does the source list for `O=C(Cc1nnc(-c2cnc(N[C@@H]3Cc4ccc(C(F)(F)F)cc4C3)nc2)o1)N1CCc2[nH]nnc2C1` [Compound 35, (R)-1-(1,4,6,7-tetrahydro-5H-[1,2,3]triazolo[4,5-c]pyridin-5-yl)-2-(5-(2-((5-(trifluoromethyl)-2,3-dihydro-1H-inden-2-yl)amino)pyrimidin-5-yl)-1,3,4-oxadiazol-2-yl)ethan-1-one]?
bioavailability [1]: 35.6%; AUC ([1]; iv 2.5 mg/kg): 6780 ng·h/mL; C0 ([1]; iv 2.5 mg/kg): 6850 ng/mL; half-life ([1]; iv 2.5 mg/kg): 61.2 min; AUC ([1]; po 10 mg/kg): 9650 ng·h/mL; Cmax ([1]; po 10 mg/kg): 3370 ng/mL; Tmax ([1]; po 10 mg/kg): 30 min; half-life ([1]; po 10 mg/kg): 56.8 min; IC50 (ATX; [2]): 2.17 nM; IC50 (ATX; [3]): 2.25 nM

With `C[C@@](F)(C(=O)N1CCc2[nH]nnc2C1)c1nnc(-c2cnc(NC3Cc4ccccc4C3)nc2)o1` (single isomer, unassigned) [Compound 38] as the molecule, how does the bioavailability [1] read?
Its bioavailability is 59.3%.

What about the AUC ([1]; iv 2.5 mg/kg) of the same molecule?
The AUC was 1480 ng·h/mL.

And the C0 ([1]; iv 2.5 mg/kg)?
The C0 was 3330 ng/mL.

And the half-life ([1]; iv 2.5 mg/kg)?
Its half-life is 33.1 min.

What about the AUC ([1]; po 10 mg/kg) of the same molecule?
The AUC was 3500 ng·h/mL.

What about the Cmax ([1]; po 10 mg/kg) of the same molecule?
Its Cmax is 3590 ng/mL.

What about the Tmax ([1]; po 10 mg/kg) of the same molecule?
The Tmax was 15 min.

And the half-life ([1]; po 10 mg/kg)?
The half-life was 48.3 min.

What about the IC50 (ATX; [2]) of the same molecule?
The IC50 was 5.53 nM.

What about the IC50 (ATX; [3]) of the same molecule?
Its IC50 is 5.88 nM.
